# Laboratory results: patent publication US20180021288A1, “Neuroprotection in Demyelinating Diseases” (Biogen MA Inc., priority 2010, published 2018)
# Where a name gives a salt, the structure may show the parent alone. Read-outs that look alike come from different tables or passages of the source.
# B1: IFN-beta: murine interferon beta, 10,000 U s.c. (protein, UniProt P01575 22-182, looked up)
# Interferon beta: INYKQLQLQERTNIRKCQELLEQLNGKINLTYRADFKIPMEMTEKMQKSYTAFAIQEMLQNVFLVFRNNFSSTGWNETIVVRLLDELHQQTVFLKTVLEEKQEERLTWEMSSTALHLKSYYWRVQRYLKLMKYNSYAWMVVRAEIFRNFLIIRRLTRNFQN
# Columns and labels:
# MOG-EAE [1] = assay: DMF/GA co-therapy during short term (acute) course of MOG-EAE (Examples 3 and 8); format: in vivo, mice; settings: for macrophage/microglia in EAE lesions: day 26 p.i., FIG. 13; for Incidence: pooled data from three experiments
# Protocol: The treatment groups were as follows:
# 1) Mice immunized with 200 μg MOG/CFA (complete Freund's adjuvant)+200 ng PTX (pertussis toxin)+vehicle (methocel).
# 2) Mice immunized with 200 μg MOG/CFA and 50 μg GA+vehicle.
# In the acute disease phase (day 26 or day 18 p.i., respectively), parameters of inflammation as well as CNS tissue integrity were analyzed. To this end, 12 week wild-type or C57BL/6 mice were actively immunized with […] of MOG peptide 35-55 and pertussis toxin. On day 18 or 26 p.i., histochemistry was performed to identify T cells (CD3 immunohistochemistry), macrophages/microglia (Mac-3), demyelination (Luxol Fast Blue staining), and axonal loss (Bielschowsky silver impregnation). Histological changes were quantified by a blinded observer counting six visual fields on spinal cord cross sections comprising cervical, thoracic and lumbar spinal cord. Statistical evaluations were performed by Kruskal-Wallis test or t-test. ** p<0.01; *** p<0.001.
# MOG-EAE [2] = assay: DMF/IFN-beta co-therapy in MOG-EAE (Examples 4 and 8); format: in vivo, mice; settings: DMF 15 mg/kg p.o.; for Incidence: FIG. 11, IFN-beta 10,000 U s.c. e.o.d; for mean clinical EAE score / clinical disease course: short-term course, IFN-beta 10,000 U s.c., FIG. 11, FIG. 15
# MOG-EAE [3] = assay: DMF/GA co-therapy during chronic MOG-EAE (Example 3); format: in vivo, mice; settings: for mean clinical EAE score during the chronic phase / onset of EAE symptoms: FIG. 4; for infiltration by T cells / number of infiltrating macrophages: chronic MOG-EAE; for infiltration by T cells: FIG. 7; for number of infiltrating macrophages: FIG. 8; for axonal loss and destruction: chronic phase, FIG. 9
# Protocol: The treatment groups were as follows: 1) Mice immunized with 200 μg MOG/CFA (complete Freund's adjuvant)+200 ng PTX (pertussis toxin)+vehicle (methocel). 2) Mice immunized with 200 μg MOG/CFA and 50 μg GA+vehicle. […] Long term experiment: additional boost on day 28 p.i.
# MOG-EAE [4] = assay: Efficacy of DMF in chronic MOG-EAE (Example 1); format: in vivo, mouse
# Description: See also, Schilling et al., “Fumaric Acid Esters Are Effective in Chronic Experimental Autoimmune Encephalomyelitis and Supress Macrophage Infiltration,” Clinical and Experimental Immunology, Vol. 145, No. 1, pp. 101-107 (2006).
# [5] = not given; remark: listed apart in the source
# MOG-EAE [6] = settings: 100 or 500 mcg glatiramer acetate co-injected with MOG antigen; FIG. 3
# Description: In this experiment mice were co-injected with glatiramer acetate and the MOG antigen. Specifically, a control group received MOG alone, while two experimental groups received doses of 100 or 500 mcg glatiramer acetate.
# MOG-EAE [7] = settings: in vivo; cited from earlier work
# [8] = IFN-beta-1a study, healthy volunteers, DMF 240 mg tid
# [9] = FIG. 4, single experiment, GA 50 μg, DMF 15 mg/kgBW
# [10] = FIG. 5, pooled data from two experiments (n=12 per group)
# [11] = GA study, healthy volunteers, DMF 240 mg tid
molecule,measurement,setting,value
"COC(=O)/C=C/C(=O)OC [DMF, Dimethyl fumarate]",macrophage/microglia in EAE lesions,MOG-EAE [1],reduction of macrophage/microglia
same,macrophage/microglia in EAE lesions,MOG-EAE [1]; listed as DMF alone,efficiently reduces
same,Incidence,MOG-EAE [1]; short term course,11/18
same,mean clinical EAE score / clinical disease course,"MOG-EAE [1]; short term course, FIG. 10A and 10B",greater than that of GA
same,most common adverse events,IFN-beta-1a study,flushing
same,new safety signals,IFN-beta-1a study,no new safety signals
same,Any AE,[8],71%
same,Diarrhea,[8],0%
same,Flushing,[8],50%
same,Headache,[8],13%
same,Nausea,[8],4%
same,Paresthesia,[8],21%
same,Pruritus,[8],4%
same,Influenza-like illness,"human, in vivo",0%
same,Incidence,MOG-EAE [2],6/6
same,mean clinical EAE score / clinical disease course,MOG-EAE [2],exacerbated the EAE compared to the methocel controls
same,Incidence,MOG-EAE [3]; [9],6/6
same,mean clinical EAE score during the chronic phase,"MOG-EAE [3]; GA 50 μg, DMF 15 mg/kgBW",little if any effect
same,onset of EAE symptoms,"MOG-EAE [3]; GA 50 μg, DMF 15 mg/kgBW",delayed
same,Incidence,MOG-EAE [3]; [10],9/12
same,infiltration by T cells,MOG-EAE [3],neither GA nor DMF reduces
same,number of infiltrating macrophages,MOG-EAE [3],neither GA nor DMF alone does so
same,axonal loss and destruction,MOG-EAE [3],reduce axonal loss and destruction
same,mean clinical score,"MOG-EAE [4]; DMF 15 mg/kg twice daily via oral gavage, FIG. 1",reduced
same,T-cell infiltration,"MOG-EAE [4]; mouse, in vivo",without suppressing
same,efficacy in chronic MOG-EAE,"MOG-EAE [4]; mouse, in vivo",effective
same,macrophage infiltration,"MOG-EAE [4]; mouse, in vivo",suppress
same,demyelination,"MOG-EAE [4]; spinal cord tissue, FIG. 2B",reduced
same,most common adverse events,[5]; GA study,flushing
same,new safety signals,[5]; GA study,no new safety signals
same,Any AE,[5]; [11],84%
same,Diarrhea,[5]; [11],8%
same,Flushing,[5]; [11],76%
same,Headache,[5]; [11],12%
same,Nausea,[5]; [11],8%
same,Paresthesia,[5]; [11],32%
same,Pruritus,[5]; [11],28%
same,subjects discontinued due to adverse event,"[5]; GA study, mild erythematous facial nodule (DMF alone), mild nausea (DMF+GA)",one
same,Influenza-like illness,"[5]; human, in vivo",0%
"L-glutamic acid polymer with L-alanine, L-lysine and L-tyrosine, acetate (salt) [GA]",Incidence,MOG-EAE [1]; short term course,13/18
same,mean clinical score,MOG-EAE [6],reduced the mean clinical score of the 100 or 500 mcg groups in a dose-dependent manner
same,Incidence,MOG-EAE [3]; [9],6/6
same,mean clinical EAE score during the chronic phase,"MOG-EAE [3]; GA 50 μg, DMF 15 mg/kgBW",intermediate effect
same,onset of EAE symptoms,"MOG-EAE [3]; GA 50 μg, DMF 15 mg/kgBW",delayed
same,Incidence,MOG-EAE [3]; [10],11/12
same,infiltration by T cells,MOG-EAE [3],neither GA nor DMF reduces
same,number of infiltrating macrophages,MOG-EAE [3],neither GA nor DMF alone does so
same,"infiltrates (inflammatory index, HE staining of spinal cords)","MOG-EAE [3]; chronic disease phase, FIG. 6",reduces infiltrates
same,axonal loss and destruction,MOG-EAE [3],reduce axonal loss and destruction
same,prevention of clinical and histological signs of EAE in combination with atorvastatin,MOG-EAE [7],synergize with atorvastatin
B1,Incidence,MOG-EAE [2],5/6
same,mean clinical EAE score / clinical disease course,MOG-EAE [2],exacerbated the EAE compared to the methocel controls
